Reference: patent US20220088024A1, “METHODS FOR TREATING CANCER USING TOZADENANT” (Biotie Therapies, Inc., priority 2018, published 2022)
“And” between values parts separate entries of the source, which are not always exact repeats. Identical values can stand only once.

Experiments:
[1] = test system: AT-3ova CD73+ tumour (mouse breast carcinoma cell line AT-3); experiment: Example 2: anti-tumor responses of SYN-115 in the AT-3ova CD73+ tumour cell mouse model (tumor area); format: in vivo, C57/BL6 mice
Description: The C57BL/6 mouse breast carcinoma cell line AT-3 was obtained from Dr. Trina Stewart (Griffith University, Nathan, QLD, Australia. Tumor cell lines were transduced to express chicken ovalbumin peptide and CD73 as previously described (1, 2, 3). Tumor cells are periodically verified to be Mycoplasma negative by the Victorian Infectious Diseases References Lab (Melbourne, VIC, Australia) by PCR analysis. Tumor cells were grown in DMEM supplemented with 10% FCS, GlutaMAX, and penicillin/streptomycin. 5×10^5 cells were resuspended in PBS and injected s.c. into C57/BL6 mice in a 100 μL volume. At day 14 tumors were measured and mice were randomized into distinct treatment groups to ensure that each group had tumors of similar size at the onset of treatment. Mice were treated i.p. at days 14, 18, 22, and 26 with either isotype control (2A3; 200 μg/mouse) or anti-PD-1 mAb (RMP1-14, 200 μg/mouse) and where indicated, SYN-115 (Batch 71236AA002) at the indicated dose or vehicle control once-daily via oral gavage on days 14 to 29. To calculate a dose of SYN-115 mouse weight was estimated to be 20 g per mouse. Therefore, 100 mg/kg=2 mg per mouse in 200 μL, which is equivalent to 10 mg/ml. To make up 40 mL, 400 milligrams of SYN-115 was weighed and added into a Falcon tube, then 1 mL of Tween 80 was added and mixed into a paste and then 39 mL of 1% Methyl Cellulose was added. The solution was vortexed and then left on rotating mixer for at least 2 hours and maintained at 4° C. Tumor measurements were taken 2-3 times per week. Tumor sizes were determined by width * length and mice were culled when tumors reached the ethical limit of 150 mm^2.

[2] = test system: CT26 colon carcinoma tumor; experiment: Example 7: SYN-115 dose range as single agent in the CT26 tumor mouse model (tumor area, survival); format: in vivo, BALB/c mice; design: key: tumor area in mm^2 (width × length)
Description: The BALB/c mouse colon carcinoma cell line CT26 was cultured in RPMI supplemented with 10% FCS, GlutaMAX, and penicillin/streptomycin. Tumor cells are periodically verified to be Mycoplasma negative by the Victorian Infectious Diseases References Lab (Melbourne, VIC, Australia) by PCR analysis. 1×10^5 cells were resuspended in PBS and injected s.c. into BALB/c mice in a 100 μL volume. At day 7 tumors were measured and mice were randomized into distinct treatment groups to ensure that each group had tumors of similar size at the onset of treatment. Mice were treated with SYN-115 (Batch 71236AA006) at the indicated dose or vehicle control once-daily via oral gavage on days 7 to 20. To calculate a dose of SYN-115 mouse weight was estimated to be 20 g per mouse. Therefore, 100 mg/kg=2 mg per mouse in 200 μL, which is equivalent to 10 mg/ml. To make up 40 mL, 400 milligrams of SYN-115 was weighed and added into a Falcon tube, then 1 mL of Tween 80 was added and mixed into a paste and then 39 mL of 1% Methyl Cellulose was added. The solution was vortexed and then left on a rotating mixer for at least 2 hours and maintained at 4° C. Tumor measurements were taken 2-3 times per week. Tumor sizes were determined by width * length and mice were culled when tumors reached the ethical limit of 150 mm^2.

COc1ccc(N2CCOCC2)c2sc(NC(=O)N3CCC(C)(O)CC3)nc12 [SYN-115, 4-hydroxy-4-methyl-piperidine-1-carboxylic acid (4-methoxy-7-morpholin-4-yl-benzothiazol-2-yl)-amide]
Tumor size (width * length) ([1]; 2A3 (200 μg/Mouse)+SYN-115 (100 mg/kg), Day 39): 123.2 mm^2 and 91.35 mm^2 and 103.88 mm^2 | Tumor size (width * length) ([1]; 2A3 (200 μg/Mouse)+SYN-115 (100 mg/kg), Day 45): 143 mm^2 | Tumor size (width * length) ([1]; Anti-PD-1 (200 ug)+SYN-115 (10 mg/kg), Day 50): 48.38 mm^2 and 66.22 mm^2 | Tumor size (width * length) ([1]; Anti-PD-1 (200 ug)+SYN-115 (10 mg/kg), Day 53): 53.6 mm^2 and 83.72 mm^2 | Tumor size (width * length) ([1]; Anti-PD-1 (200 ug)+SYN-115 (10 mg/kg), Day 57): 63.19 mm^2 and 81.6 mm^2 | Tumor size (width * length) ([1]; Anti-PD-1 (200 ug)+SYN-115 (10 mg/kg), Day 60): 72.72 mm^2 and 80.04 mm^2 | Tumor size (width * length) ([1]; Anti-PD-1 (200 ug)+SYN-115 (10 mg/kg), Day 64): 91.64 mm^2 and 104.86 mm^2 | Tumor size (width * length) ([1]; Anti-PD-1 (200 ug)+SYN-115 (10 mg/kg), Day 68): 121.26 mm^2 | Tumor size (width * length) ([1]; Anti-PD-1 (200 ug)+SYN-115 (30 mg/kg), Day 57): 75.24 mm^2 and 44.22 mm^2 | Tumor size (width * length) ([1]; Anti-PD-1 (200 ug)+SYN-115 (30 mg/kg), Day 60): 89.25 mm^2 and 48.28 mm^2 | Tumor size (width * length) ([1]; Anti-PD-1 (200 ug)+SYN-115 (30 mg/kg), Day 64): 107.1 mm^2 and 69.52 mm^2 | Tumor size (width * length) ([1]; Anti-PD-1 (200 ug)+SYN-115 (30 mg/kg), Day 68): 92.22 mm^2 | Tumor size (width * length) ([1]; Anti-PD-1 (200 ug)+SYN-115 (100 mg/kg), Day 45): 101 mm^2 and 129.71 mm^2 and 75.84 mm^2 | Tumor size (width * length) ([1]; Anti-PD-1 (200 ug)+SYN-115 (100 mg/kg), Day 50): 136.4 mm^2 | Tumor area, individual mice ([2]; SYN-115 10 mg/kg, Day 0, 10 mg/kg): 4.86 and 6.44 and 7.56 and 8.37 and 8.84 and 11.2 | Tumor area, individual mice ([2]; SYN-115 10 mg/kg, Day 2, 10 mg/kg): 6.16 and 6.75 and 7.36 and 15.2 and 9.45 and 14.06 | Tumor area, individual mice ([2]; SYN-115 10 mg/kg, Day 4, 10 mg/kg): 15.75 and 12.16 and 22.55 and 23.52 and 8.36 and 26.95 | Tumor area, individual mice ([2]; SYN-115 10 mg/kg, Day 7, 10 mg/kg): 20.7 and 14.04 and 41.44 and 34.77 and 6.24 and 46.92 | Tumor area, individual mice ([2]; SYN-115 10 mg/kg, Day 9, 10 mg/kg): 30.53 and 22.09 and 52.08 and 50.37 and 0 and 66.99 | Tumor area, individual mice ([2]; SYN-115 10 mg/kg, Day 11, 10 mg/kg): 44.1 and 31.32 and 70.68 and 66.42 and 0 and 89.24 | Tumor area, individual mice ([2]; SYN-115 10 mg/kg, Day 14, 10 mg/kg): 52.8 and 48.96 and 108.1 and 114.45 and 0 and 125.08 | Tumor area, individual mice ([2]; SYN-115 10 mg/kg, Day 16, 10 mg/kg): 91.44 and 67.86 and 132.84 and 135.42 and 0 and 179.55 | Tumor area, individual mice ([2]; SYN-115 10 mg/kg, Day 18, 10 mg/kg): 136.71 and 100.98 and 202.5 and 119.88 and 0 | Tumor area, individual mice ([2]; SYN-115 10 mg/kg, Day 21, 10 mg/kg): 175.74 and 162 and 160 and 0 | Tumor area, individual mice ([2]; SYN-115 10 mg/kg, Day 25): 0 | Tumor area, individual mice ([2]; SYN-115 10 mg/kg, Day 29): 0 | Tumor area, individual mice ([2]; SYN-115 10 mg/kg, Day 32): 0 | Tumor area, individual mice ([2]; SYN-115 10 mg/kg, Day 35): 0 | Tumor area, individual mice ([2]; SYN-115 10 mg/kg, Day 37): 0 | Tumor area, individual mice ([2]; SYN-115 30 mg/kg, Day 0, 30 mg/kg): 5 (2×) and 6.24 and 7.56 and 8.7 and 12.48 | Tumor area, individual mice ([2]; SYN-115 30 mg/kg, Day 2, 30 mg/kg): 12.6 (2×) and 8.12 and 9.28 and 12.95 and 8.4 | Tumor area, individual mice ([2]; SYN-115 30 mg/kg, Day 4, 30 mg/kg): 21.6 (2×) and 15.96 and 13.65 and 24.48 and 10.56 | Tumor area, individual mice ([2]; SYN-115 30 mg/kg, Day 7, 30 mg/kg): 42.21 (2×) and 25 and 25.5 and 30.21 and 30.24 | Tumor area, individual mice ([2]; SYN-115 30 mg/kg, Day 9, 30 mg/kg): 50.16 (2×) and 35.4 and 29.68 and 47.61 and 31.9 | Tumor area, individual mice ([2]; SYN-115 30 mg/kg, Day 18, 30 mg/kg): 204.8 (2×) and 114 and 189.23 and 202.86 and 125.4 | Tumor area, individual mice ([2]; SYN-115 30 mg/kg, Day 21, 30 mg/kg): 153.4 and 179.4 | Raw Tumor Measurements ([2]; SYN-115 (1 mg/kg), Day 0, 1 mg/kg): 5.25 and 6.72 and 8.37 and 7.84 and 9.6 and 10.36 | Raw Tumor Measurements ([2]; SYN-115 (1 mg/kg), Day 2, 1 mg/kg): 12.95 and 12.54 and 15.6 and 13.6 and 12.71 and 15.84 | Raw Tumor Measurements ([2]; SYN-115 (1 mg/kg), Day 4, 1 mg/kg): 14.8 and 22.95 and 21 and 24.99 and 20.4 and 24.19 | Raw Tumor Measurements ([2]; SYN-115 (1 mg/kg), Day 16, 1 mg/kg): 144.1 and 103.55 and 103.74 and 155.61 | Raw Tumor Measurements ([2]; SYN-115 (1 mg/kg), Day 18, 1 mg/kg): 208.68 and 167.24 and 138.6 | Raw Tumor Measurements ([2]; SYN-115 (1 mg/kg), Day 21): 173.46 | Raw Tumor Measurements ([2]; SYN-115 (5 mg/kg), Day 0, 5 mg/kg): 4.8 and 7.8 and 7.54 and 8.84 | Raw Tumor Measurements ([2]; SYN-115 (5 mg/kg), Day 2, 5 mg/kg): 13.12 and 11.16 and 13.26 and 10.36 | Raw Tumor Measurements ([2]; SYN-115 (5 mg/kg), Day 4, 5 mg/kg): 20.8 and 11.2 and 18.45 and 19.52 | Raw Tumor Measurements ([2]; SYN-115 (5 mg/kg), Day 25, 5 mg/kg): 163.8 and 83.52 | Raw Tumor Measurements ([2]; SYN-115 (5 mg/kg), Day 29): 101.76 | Raw Tumor Measurements ([2]; SYN-115 (5 mg/kg), Day 32): 124.74 | Raw Tumor Measurements ([2]; SYN-115 (5 mg/kg), Day 35): 146.52 | Raw Tumor Measurements ([2]; SYN-115 (5 mg/kg), Day 37): 161.59
